One series has as its system CCRF-CEM cells. The series is described as follows: PA nanofiber coating of CCRF-CEM model cells (confocal microscopy, flow cytometry). To be noted: annealed nanofibers with 1 mol % TAMRA-PA. It counts as cell-based. The method, then: (§1) The cells for PA nanofiber coating should be prepared as a dispersion in buffer (DPBS; Invitrogen). The adherent cells such as 3T3 and C2C12 cells were dissociated using Trypsin (0.25%, Invitrogen). The cells were centrifuged down and washed using buffers to be prepared in DPBS (5×10^5 cells/15 μL/tube). Non-adherent cells such as CCRF-CEM cells or human regulatory T cells were simply washed by buffers to remove serum or other proteins which potentially interact with the PA molecules to get concentrated cell dispersion.
The 15 μL of concentrated cell dispersion in DPBS was mixed with 10 μL of PA solution in 500 μL-tube at RT. […]
(§2) All cells were stained by Calcein AM (Life Technologies) and Hoechst 33342 (Life Technologies) according to manufacturer's instructions for imaging and the flow cytometry analysis. For confocal fluorescence imaging and imaging with z-stacks, Nikon X1 Spinning Disk Confocal microscope in Center for Advanced Microscopy/Nikon Imaging Center (CAM), Northwestern University was utilized. […]
(§3) In order to quantify the coating efficiency, mean fluorescence intensity (MFI) and the viability of the cells, LSR Fortessa and Diva software (BD Biosciences) was utilized. […] The viability was calculated by dividing the number of Calcein-AM+ (living cells) by the total number of cells.

In series [1] the test system is human regulatory T (hTreg) cells. Kind of series: Viability of PA-coated hTreg cells (Calcein AM, flow cytometry). The note with it: 500 μM coating solution. It counts as cell-based. The method, then: (§4) The 15 μL of concentrated cell dispersion in DPBS was mixed with 10 μL of PA solution in 500 μL-tube at RT. Unless otherwise noted, the incubation time for backbone PAs and VCAMb PA is 5 minutes and 1 minute, respectively. After incubation the cell and PA mixture was transferred to a 15 mL-conical tube with 2 mL of DPBS and centrifuged down by 1,000 g for 10 minutes. The supernatant was aspirated leaving 300 μL of buffers with the cell pellet. For backbone PA, the washing step was repeated for 3 times. For further characterizations, the pellets were dissociated in 100 μL DPBS.
(§5) All cells were stained by Calcein AM (Life Technologies) and Hoechst 33342 (Life Technologies) according to manufacturer's instructions for imaging and the flow cytometry analysis. For confocal fluorescence imaging and imaging with z-stacks, Nikon X1 Spinning Disk Confocal microscope in Center for Advanced Microscopy/Nikon Imaging Center (CAM), Northwestern University was utilized. For 3D reconstruction of z-stacks of confocal images, IMARIS software (Oxford Instruments) in the same center was utilized.
(§6) In order to quantify the coating efficiency, mean fluorescence intensity (MFI) and the viability of the cells, LSR Fortessa and Diva software (BD Biosciences) was utilized. The coating efficiency was obtained from calculating the number of TAMRA+ cells divided by the total number of cells (Hoechst+ cells). The MFI value was obtained from living cells. The viability was calculated by dividing the number of Calcein-AM+ (living cells) by the total number of cells.

Series [2] is described as follows: Zeta potential measurement of PA nanofibers. It counts as physicochemical. To be noted: 0.1 mM PA in DPBS. The protocol: The PA solutions were prepared with the final concentration of 0.1 mM in DPBS. Each solution was transferred to folded capillary zeta cells (Malvern). The zeta potential was measured using zetasizer Nano ZSP (Malvern).
Series [3] relates to human regulatory T (hTreg) cells. Kind of series: PA nanofiber coating of human regulatory T cells (flow cytometry, confocal). It counts as cell-based. The protocol: To isolate the Treg cells, the apheresis product collected from peripheral blood was suspended in a de-clumping buffer (Miltenyi PBS/EDTA Buffer, 25% Human Serum Albumin (HSA), MgCl2, and Pulmozyme). Using CliniMACS Plus and GMP grade reagents, the CD8 and CD19 depletion and CD25+ enrichment was carried out (Miltenyi). The isolated Tregs were stimulated/expanded with Exp-Act® beads at a 4:1 (bead:cell) ratio in a TexMACS medium supplemented with 5% heat-inactivated AB serum, 1,000 IU/ml IL-2, 100 ng/ml Sirolimus (SRL: Rapamycin; Sigma Aldrich) and 1 μg/ml TGF-β (Miltenyi Biotec). The cells were then restimulated with Exp-Act® beads, at a ratio of 1:1 beads on Day 7 and 14. Further, the expanded Tregs were harvested on Day 21 and Exp-Act beads were removed on the CliniMACS Plus instrument for the nanofiber coating experiment and evaluation. Peripheral blood samples were obtained under a protocol following written informed consent approved and supervised by a Northwestern University Institutional Review Board.
as §1, §4, §2, §3

Series [4] deals with T1, Recombinant Human VCAM-1/CD106 Fc chimera protein (Homo sapiens, UniProt P19320).
T1 construct: Fc (immunoglobulin Fc fusion partner); His tag (inferred from capture on anti-penta-His sensor); purchased R&D Systems
T1 sequence (P19320 with tags, fused parts or gaps limits assumed): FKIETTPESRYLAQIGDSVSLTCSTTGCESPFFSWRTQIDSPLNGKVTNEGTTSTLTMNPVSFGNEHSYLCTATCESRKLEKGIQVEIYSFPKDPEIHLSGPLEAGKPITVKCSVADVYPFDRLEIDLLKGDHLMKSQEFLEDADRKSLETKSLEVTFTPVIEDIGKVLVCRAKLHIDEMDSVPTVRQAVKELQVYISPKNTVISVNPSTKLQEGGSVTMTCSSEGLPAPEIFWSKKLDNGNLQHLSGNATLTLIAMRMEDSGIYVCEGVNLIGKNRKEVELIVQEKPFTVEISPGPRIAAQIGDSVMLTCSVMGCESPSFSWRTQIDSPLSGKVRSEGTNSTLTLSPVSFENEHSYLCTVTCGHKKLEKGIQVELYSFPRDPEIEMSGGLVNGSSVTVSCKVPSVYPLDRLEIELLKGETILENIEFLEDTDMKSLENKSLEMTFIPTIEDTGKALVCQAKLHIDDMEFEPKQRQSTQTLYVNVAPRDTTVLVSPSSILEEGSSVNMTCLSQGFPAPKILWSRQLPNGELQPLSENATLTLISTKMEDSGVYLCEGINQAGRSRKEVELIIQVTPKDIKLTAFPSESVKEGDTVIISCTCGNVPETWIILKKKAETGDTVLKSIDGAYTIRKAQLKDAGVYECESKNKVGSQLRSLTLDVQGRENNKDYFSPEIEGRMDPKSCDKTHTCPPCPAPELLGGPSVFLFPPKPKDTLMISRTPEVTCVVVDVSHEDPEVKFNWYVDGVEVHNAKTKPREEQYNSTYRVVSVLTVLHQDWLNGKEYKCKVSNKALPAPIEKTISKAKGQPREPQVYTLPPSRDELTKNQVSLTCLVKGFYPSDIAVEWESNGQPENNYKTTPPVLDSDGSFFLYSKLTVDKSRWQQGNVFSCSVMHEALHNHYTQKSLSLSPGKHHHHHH
The series is described as follows: Biolayer interferometry (BLI) binding to VCAM-1 protein. The note with it: all concentrations of PA investigated (0.1 mM-100 nM). The protocol:
The PA solution of each PA were prepared with the concentration 1 mM after annealing and serial dilutions were made for 100, 10, 1 μM, 100, 10, 1 nM solutions using DPBS. Recombinant Human VCAM-1/CD106 Fc chimera protein (R&D Systems) was purchased and the stock solution of 100 μg/mL was prepared according to the manufacturer's instructions and stored in −80° C. until use. For measurement, the protein solution was diluted to […]. The binding responses were measured and recorded by BLItz Bio-Layer Interferometer in Keck Biophysics Facility, Chicago campus, Northwestern University. The biosensor utilized for this study was Anti-Penta-HIS Biosensors (ForteBio). The measuring protocol is as follows: 30 seconds of initial baseline measurement, 600 seconds of protein (VCAM-1) immobilization, 30 seconds of base line measurement, 300 seconds of association measurement, 300 seconds of dissociation measurement. The dissociation constant was calculated by BLItz Pro Software.

A further series concerns the target T2, VCAM-1 (Homo sapiens, UniProt P19320).
T2 sequence (P19320 25-739): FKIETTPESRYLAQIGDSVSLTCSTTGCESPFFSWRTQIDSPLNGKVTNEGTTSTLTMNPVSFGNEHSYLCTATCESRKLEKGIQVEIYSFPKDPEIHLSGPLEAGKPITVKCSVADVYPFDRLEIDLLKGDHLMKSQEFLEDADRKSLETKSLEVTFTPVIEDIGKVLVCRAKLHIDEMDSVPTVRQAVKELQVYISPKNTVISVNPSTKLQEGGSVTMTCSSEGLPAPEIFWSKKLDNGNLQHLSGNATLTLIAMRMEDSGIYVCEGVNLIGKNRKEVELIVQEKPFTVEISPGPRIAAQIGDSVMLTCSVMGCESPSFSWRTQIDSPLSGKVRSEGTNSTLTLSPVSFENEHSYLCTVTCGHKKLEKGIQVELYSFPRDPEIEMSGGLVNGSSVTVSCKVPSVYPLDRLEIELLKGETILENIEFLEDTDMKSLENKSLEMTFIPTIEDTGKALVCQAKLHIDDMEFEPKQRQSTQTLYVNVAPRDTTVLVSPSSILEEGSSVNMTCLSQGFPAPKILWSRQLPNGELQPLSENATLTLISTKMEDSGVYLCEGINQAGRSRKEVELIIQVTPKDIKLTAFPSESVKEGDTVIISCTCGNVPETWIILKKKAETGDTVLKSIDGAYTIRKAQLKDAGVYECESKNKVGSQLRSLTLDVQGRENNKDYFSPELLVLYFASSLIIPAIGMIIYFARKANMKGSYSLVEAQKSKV
To be noted: free peptide, SPR, measured from another group; cited from earlier work.

Series [5] is described as follows: Viability of PA-coated hTreg cells (Calcein AM, flow cytometry). It counts as cell-based, human. The note with it: human, human regulatory T (hTreg) cells. The method, then: as §4, §5, §6
Series [6] concerns primary murine splenocytes. The series is described as follows: Coating of murine primary splenocytes (confocal, flow cytometry). It counts as cell-based. The source says: (§7) To further investigate the coating efficiency of the targeting PAs, murine primary splenocytes were isolated, coated with TAMRA-labeled ICAM-1 targeting PA, and visualized using confocal microscopy. […] Flow cytometry was subsequently performed to compare coating efficiency of ICAM-1 and VCAM-1 targeting PAs. […] This can be visualized through both light microscopy (top) and processed images highlighting bound cell edges (bottom).

Another series has as its target ICAM surface (Homo sapiens, UniProt P05362). Kind of series: Microfluidic flow retention of coated lymphocytes on protein surface. It counts as cell-based.
Description: as §7

The values below come from US12247063B2, “Cell surface modification by coating with peptide amphiphiles (PAs)” (Northwestern University, priority 2020, dated 2025).

Peptide text beside a SMILES is read from it.

Chain of ICAM surface (P05362 28-532): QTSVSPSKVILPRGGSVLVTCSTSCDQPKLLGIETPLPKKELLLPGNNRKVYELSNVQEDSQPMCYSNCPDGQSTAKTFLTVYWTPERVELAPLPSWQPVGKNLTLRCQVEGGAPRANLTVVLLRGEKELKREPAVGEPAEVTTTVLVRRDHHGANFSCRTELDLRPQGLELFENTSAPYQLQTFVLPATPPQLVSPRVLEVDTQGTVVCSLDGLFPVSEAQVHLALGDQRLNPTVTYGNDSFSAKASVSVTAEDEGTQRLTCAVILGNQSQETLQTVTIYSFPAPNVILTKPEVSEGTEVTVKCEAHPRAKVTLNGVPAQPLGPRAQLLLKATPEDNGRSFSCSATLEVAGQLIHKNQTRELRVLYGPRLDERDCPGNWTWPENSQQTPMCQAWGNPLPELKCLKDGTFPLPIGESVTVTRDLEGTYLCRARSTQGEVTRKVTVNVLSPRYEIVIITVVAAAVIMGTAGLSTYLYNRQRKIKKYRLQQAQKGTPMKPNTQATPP

As for “C16-V4A2E3 (SEQ ID NO: 12) (VVVVAAEEE; HELM PEPTIDE1{[CCCCCCCCCCCCCCCC(=O)[*:2]].V.V.V.V.A.A.E.E.E.[am]}$$$$V2.0; SMILES CCCCCCCCCCCCCCCC(=O)N[C@H](C(=O)N[C@H](C(=O)N[C@H](C(=O)N[C@H](C(=O)N[C@@H](C)C(=O)N[C@@H](C)C(=O)N[C@@H](CCC(=O)O)C(=O)N[C@@H](CCC(=O)O)C(=O)N[C@@H](CCC(=O)O)C(N)=O)C(C)C)C(C)C)C(C)C)C(C)C) [backbone PA candidate with V4A2 β-sheet region]”, in the series on CCRF-CEM cells, the “coverage of the cell surface by nanofibers” value is “only could partially cover the cell surface”.
In the case of `CCCCCCCCCCCCCCCC(=O)N[C@H](C(=O)N[C@H](C(=O)N[C@H](C(=O)N[C@@H](C)C(=O)N[C@@H](C)C(=O)N[C@@H](C)C(=O)N[C@@H](CCC(=O)O)C(=O)N[C@@H](CCC(=O)O)C(=O)N[C@@H](CCC(=O)O)C(N)=O)C(C)C)C(C)C)C(C)C` [backbone PA, C16-V3A3E3 (SEQ ID NO: 5)] (HELM PEPTIDE1{[CCCCCCCCCCCCCCCC(=O)[*:2]].V.V.V.A.A.A.E.E.E.[am]}$$$$V2.0), the “viability of coated cells” value in series [1] is “high viability”.
With “C16-V3A3E3GSGQHPHVK (SEQ ID NO: 17) (VVVAAAEEEGSGQHPHVK; HELM PEPTIDE1{[CCCCCCCCCCCCCCCC(=O)[*:2]].V.V.V.A.A.A.E.E.E.G.S.G.Q.H.P.H.V.K.[am]}$$$$V2.0; SMILES CCCCCCCCCCCCCCCC(=O)N[C@H](C(=O)N[C@H](C(=O)N[C@H](C(=O)N[C@@H](C)C(=O)N[C@@H](C)C(=O)N[C@@H](C)C(=O)N[C@@H](CCC(=O)O)C(=O)N[C@@H](CCC(=O)O)C(=O)N[C@@H](CCC(=O)O)C(=O)NCC(=O)N[C@@H](CO)C(=O)NCC(=O)N[C@@H](CCC(N)=O)C(=O)N[C@@H](Cc1c[nH]cn1)C(=O)N1CCC[C@H]1C(=O)N[C@@H](Cc1c[nH]cn1)C(=O)N[C@H](C(=O)N[C@@H](CCCCN)C(N)=O)C(C)C)C(C)C)C(C)C)C(C)C) [VCAMb-scr PA]”, the zeta potential in series [2] worked out at 6.313±0.8632 mV. Further, the “coating behavior on hTreg cells” value in series [3] (physiological buffer) is on record as “the majority of the cells were not coated by the fibers”. In [4], the “association with VCAM-1 protein in BLI” value is recorded as “negligible binding”.
With VHPKQHR [VHPKQHR (SEQ ID NO: 11)], at VCAM-1, the Kd was 39.6 ± 1.78 nM.
In turn, `CCCCCCCCCCCCCCCC(=O)N[C@H](C(=O)N[C@H](C(=O)N[C@H](C(=O)N[C@@H](C)C(=O)N[C@@H](C)C(=O)N[C@@H](C)C(=O)N[C@@H](CCC(=O)O)C(=O)N[C@@H](CCC(=O)O)C(=O)N[C@@H](CCC(=O)O)C(=O)NCC(=O)N[C@@H](CO)C(=O)NCC(=O)N[C@H](C(=O)N[C@@H](Cc1c[nH]cn1)C(=O)N1CCC[C@H]1C(=O)N[C@@H](CCCCN)C(=O)N[C@@H](CCC(N)=O)C(=O)N[C@@H](Cc1c[nH]cn1)C(N)=O)C(C)C)C(C)C)C(C)C)C(C)C` [VCAMb PA, C16-V3A3E3GSGVHPKQH (SEQ ID NO: 14)] (HELM PEPTIDE1{[CCCCCCCCCCCCCCCC(=O)[*:2]].V.V.V.A.A.A.E.E.E.G.S.G.V.H.P.K.Q.H.[am]}$$$$V2.0) showed a zeta potential in series [2] of 21.4±3.703 mV. Also, the viability at 1 min, 125 µM in series [5] (125 μM PA) was 85.2 ± 5.3%. Moreover, in series [5] (250 μM PA), the viability at 1 min, 250 µM was 82.6 ± 7.45%. The viability at 1 min, 500 µM in series [5] (500 μM PA) was 82.53 ± 0.61%. Besides, the coating efficiency in series [3] (PA in the range of 125-500 μM) was no less than 95%; in series [3] (coated within 1 minute at room temperature), no less than 94.5%. In addition, in series [3] (from coating efficiency and peak shifting), the “minimal concentration of stable coating” value came to 125 µM. Further, in series [6], the “difference in coating efficiency between VCAM-1 and ICAM-1 targeting PA” value is reported as “little difference”. In addition, in series [4], the “association with VCAM-1 protein in BLI” value is reported as “clear association”. In addition, the “non-specific interactions of coated lymphocytes with off-target protein” value at ICAM surface was “minimal”.
